Patent US7833967B2, “Synthetic antimicrobial polypeptides” (priority 2003, dated 2010)
Where two headings read alike, the source gives them in different places. Ends that are not written are not given here.

Columns and labels:
E. coli TOP10 = assay: Suicide expression system (SES) growth inhibition; type: cell-based; conditions: Table 5; mixed-motif library, re-tested in the Bioscreen C
[1] = test system: human red blood cells (hRBC); type: cell-based; conditions: red cells of human
Experimental: The ability of the antimicrobial peptides to lyse human red blood cells (hRBC) was analyzed. The Red Blood Cell Test assay provides a simple test system that assesses the membranolytic activity of test materials. It is suitable as a screening assay for hemolytic properties. Hemoglobin release is a useful endpoint of cell membrane integrity. Released hemoglobin is detected by measuring absorbance at 540 nm. Normally, the concentration resulting in 50% hemolysis relative to a totally lysed sample (HL50) would be calculated; however due to the low hemolytic activity of the tested peptides, this was not done in this Example. An 8% RBC suspension (12 days old) was used in the present test setup.
Since the peptides were dissolved in 0.01% acetic acid, vehicle control of the 0.01% acetic acid was included. PBS with 25%, 10%, and 5% 0.01% acetic acid was included on both plates.
To verify that a dose/response effect exists, the hemolytic activity of SDS was also tested.

Substance | Growth inhibition (%) (E. coli TOP10) | Hemolysis (%) ([1]; 47 micrograms/ml) | Hemolysis (%) ([1]; 94 micrograms/ml) | Hemolysis (%) ([1]; 188 micrograms/ml) | Hemolysis (%) ([1]; 375 micrograms/ml)
311 (RRRPPRVPRPFPVRPPPRFPRPVPFRP; Synthetic antimicrobial peptide) [compound 311] | 96% |  |  |  | 
312 (RRRPPRVPRPIPIRPPPRVPRPVPFRP; Synthetic antimicrobial peptide) [compound 312] | 93% |  |  |  | 
313 (RRRPPRVPRPIPIRPPPRVPRPVPVRP; Synthetic antimicrobial peptide) [compound 313] | 92% |  |  |  | 
314 (RRRPPRVPRPLPFRPPPRFPRPIPFRP; Synthetic antimicrobial peptide) [compound 314] | 94% |  |  |  | 
315 (RRRPPRVPRPVPVRPPPRIPRPFPVRP; Synthetic antimicrobial peptide) [compound 315] | 98% |  |  |  | 
316 (RRRTRHVFARPFPFRPPPRIPRPFPLRP; Synthetic antimicrobial peptide) [compound 316] | 97% |  |  |  | 
317 (RRRTRHVFARPVPVRPPPRVPRPFPVRP; Synthetic antimicrobial peptide) [compound 317] | 95% |  |  |  | 
318 (RRRTRHVVPRPLPVRPPPRVPRPFPLRP; Synthetic antimicrobial peptide) [compound 318] | 93% |  |  |  | 
319 (RRRPPRVPRPFPVRPPPRVPRPIPFVHNCSRTKTHLRRGSE; Synthetic antimicrobial peptide) [compound 319] | 93% |  |  |  | 
RRRPFRPPFRPPFRPPVRPPVRPPFRP [SEQ ID NO: 79] |  | 16% | 16% | 17% | 17%
RRRPPRLPRPFPVRPPPRFPRPFPLRP [SEQ ID NO: 239] |  | 19% | 16% | 16% | 18%
RRRPRPVPRPFPRPVPRPLPRPFPRPF [SEQ ID NO: 61] |  | 16% | 16% | 16% | 17%
